The values that follow come from ChEMBL document CHEMBL3804762, “Novel indoleflutimide heterocycles with activity against influenza PA endonuclease and hepatitis C virus” (Medchemcomm, 2016).

The structures appear in SMILES notation. Active and inactive are the calls of the source. No cut-off for these calls is given here. Some results are limits rather than exact numbers.

Broadly, the IC50 is the concentration needed to halve the response being measured. The EC50 is the concentration giving half of the maximal effect. One may read the pKa as the negative logarithm of the acid dissociation constant. Lower therefore signals a group that gives up its proton readily. As a reminder, the logD is the decadic logarithm of the distribution of all forms, ionised or not, between an organic phase and buffer at a given pH. Higher therefore signals a more lipophilic compound.

Series [1] has as its target T1, Polymerase acidic protein (Influenza A virus (strain A/X-31 H3N2), UniProt Q9IQ47). In words: Inhibition of recombinant Influenza A/X-31 virus PA (N-terminal amino acid residue 1-217) transfected in Escherichia coli assessed as endonucleolytic digestion using single-stranded circular DNA plasmid M13mp18 after 2 hrs by ethidium bromide staining based agarose gel electrophoresis. Further details: species or system Influenza A virus (A/X-31(H3N2)).

A short description of series [2]: Cytotoxicity against HEK293T cells assessed as effect on cell morphology after 24 hrs by microscopic analysis. Conditions: human. The series is classed as cell-based, HEK-293T.
The target in series [3] is T1, Polymerase acidic protein. The series is described as follows: Inhibition of recombinant Influenza A/X-31 virus PA infected in HEK293T cells after 2 hrs by vRNP reconstitution assay. It counts as cell-based, Influenza A virus (A/X-31(H3N2)), HEK-293T.
Series [4] in a line: Cytotoxicity against human Huh5-2 cells assessed as cell viability after 72 hrs by Alamar blue dye based colorimetric analysis. Further details: species or system Huh-5-2. Conditions: read-out: LC50.
Series [5] has as its system Hepatitis C virus. The series is described as follows: Antiviral activity against HCV Con1 infected in human Huh5-2 cells haboring firefly luciferase expressing subgenomic replicon of HCV genotype 1b after 72 hrs by luciferase reporter gene assay. The note with it: isolate Con1, Huh-5-2, 72 h. The series is classed as functional, organism-based, Hepacivirus hominis. On the technique in general: A replicon is a self-replicating genome or part of one, used to study replication in cells.

The nature of series [6]: Selectivity index, ratio of LC50 for human Huh5-2 cells to EC50 for HCV Con1 infected in human Huh5-2 cells haboring firefly luciferase expressing subgenomic replicon of HCV genotype 1b. Further details: species or system Huh-5-2.
A short description of series [7]: Dissociation constant, pKa of compound. The series is classed as physicochemical.
Series [8] in a line: Lipophilicity, log D of compound. It counts as physicochemical. Conditions: octanol/water.
Series [9] concerns the target T2, Nonstructural protein 5A (Hepatitis C virus) (UniProt Q5L478).
T2 sequence (whole entry): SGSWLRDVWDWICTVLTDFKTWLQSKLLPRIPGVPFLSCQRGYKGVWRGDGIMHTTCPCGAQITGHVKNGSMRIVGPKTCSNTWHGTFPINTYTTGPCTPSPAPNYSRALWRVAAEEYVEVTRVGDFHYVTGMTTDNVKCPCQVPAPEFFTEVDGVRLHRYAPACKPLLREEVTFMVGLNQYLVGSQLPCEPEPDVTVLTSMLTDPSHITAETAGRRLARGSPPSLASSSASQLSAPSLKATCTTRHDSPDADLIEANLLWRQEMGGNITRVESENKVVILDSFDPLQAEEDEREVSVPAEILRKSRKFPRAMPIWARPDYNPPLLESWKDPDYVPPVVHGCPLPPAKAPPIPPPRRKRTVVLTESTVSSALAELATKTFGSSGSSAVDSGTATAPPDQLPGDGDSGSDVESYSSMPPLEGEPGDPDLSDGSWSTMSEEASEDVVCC
The series is described as follows: Inhibition of HCV NS5A in Huh5-2 replicon cells at 100 uM propidium iodide staining based confocal microscopic analysis. Conditions: Hepacivirus hominis. It counts as cell-based.

Series [10] has as its system Hepatitis C virus. The series is described as follows: Antiviral activity against HCV Con1 infected in human Huh5-2 cells haboring firefly luciferase expressing subgenomic replicon of HCV genotype 1b at 100 uM after 7 days by luciferase reporter gene assay. The series is classed as functional, organism-based. The note with it: Hepacivirus hominis, isolate Con1, Huh-5-2.

The target in series [11] is Polymerase acidic protein (Influenza A virus (A/Puerto Rico/8/1934(H1N1)), UniProt P03433). In words: Inhibition of Influenza A/PR/8/34 virus PA endonuclease by cap dependent RNA polymerase assay.

On to `O=C1Cn2c(cc3ccccc32)C(=O)N1O`, for which the half-inhibitory concentration (IC50) in [1] is 12.7 µM. In addition, in series [2], the MCC at 24 h was no less than 500 µM. For the same molecule, the results for the EC50 in [3] and in [5] were 297 µM and 126 µM, respectively. Besides, in series [4], the CC50 at 72 h was greater than 200 µM. The “Selectivity Index” value in series [6] is greater than 1.6. Moreover, the pKa in series [7] was determined as 7.27. In [8], this molecule gave a logD of 0.57.
On to `O=C1Cn2c(cc3cc(Cl)ccc32)C(=O)N1O`, for which the IC50 in series [1] was 26.9 µM. Moreover, in series [2], the MCC at 24 h is no less than 500 µM. The concentration for a half-maximal effect (EC50) is 114 µM in [3] and 10.5 µM in series [5]. In addition, the inhibition result in series [9] was “Active”. Further, in series [4], the CC50 at 72 h is greater than 200 µM. Also, in series [6], the “Selectivity Index” value is given as greater than 19.1. Also, the result in series [10] was inactive. Moreover, in [7], the pKa was 7.27. This molecule registered a logD in series [8] of 1.17.
In series [11], `O=C1Cc2ccccc2CC(=O)N1O` registered an IC50 greater than 500 µM.
As to `O=C1Cn2c(cc3cc(O)ccc32)C(=O)N1O`, the IC50 in series [1] was 29.2 µM. For the same molecule, in series [2], the MCC at 24 h is no less than 500 µM. Also, the EC50 is 75 µM in series [3] and greater than 200 µM in series [5]. Also, the CC50 at 72 h in [4] is greater than 200 µM. For the same molecule, the pKa in series [7] was 7.27. In series [8], the logD worked out at 0.26.
Turning to `COc1ccc2c(c1)cc1n2CC(=O)N(O)C1=O`, the half-inhibitory concentration (IC50) in series [1] is 23 µM. Also, in series [2], the MCC at 24 h was no less than 500 µM. Besides, the 50% effective concentration (EC50) in [3] was 48 µM; in [5], greater than 200 µM. Further, in series [4], the CC50 at 72 h was greater than 200 µM. In addition, the pKa in series [7] stood at 7.27. In series [8], this molecule registered a logD of 0.41.
Regarding `O=C1Cn2c(cc3ccccc32)C(=O)N1`, the concentration for half-maximal inhibition (IC50) in [1] is greater than 500 µM. The CC50 at 72 h in series [4] was greater than 200 µM. Moreover, the EC50 in series [5] is greater than 200 µM. Also, the pKa in series [7] was 9.3. The same molecule returned a logD in [8] of 0.75.
Take `O=C1Cn2c(cc3cc(F)ccc32)C(=O)N1O`: in series [1], the concentration for half-maximal inhibition (IC50) stood at 17.3 µM. Also, the MCC at 24 h in [2] is no less than 500 µM. In addition, the 50% effective concentration (EC50) in series [3] is greater than 500 µM; in series [5] it was 83.8 µM. The CC50 at 72 h in series [4] was greater than 200 µM. The “Selectivity Index” value in series [6] is given as greater than 2.4. In series [7], the pKa came to 7.27. Besides, the logD in [8] is 0.71.
`O=C(O)C(=O)CC(=O)c1ccccc1`: the IC50 in series [1] turned out to be 5.4 µM. Besides, in series [4], the CC50 at 72 h is greater than 200 µM. In [5], this molecule displayed an EC50 greater than 200 µM. Further, the pKa in [7] is 2.85. Also, in series [8], the logD was -1.73.
